Here are results for six compounds from patent publication US10676504B2 (Colorado State University Research Foundation, priority 2015, dated 2020).

Test [1] deals with T1, HDAC1 (Homo sapiens, UniProt Q13547). Briefly: HDAC biochemical assay (Example 16). As to conditions: Table 4; reducing conditions (TCEP 200 μM). Further details: recombinant, full-length HDAC protein; purchased BPS Biosciences.
Description: (§1) Thus, small-molecule inhibitors were arrayed at twelve-point dose-response (3-fold increments) in 384-well library plates and transferred by robotic pin device to replicate assay plates containing assay buffer under reducing conditions (TCEP 200 μM). A liquid handling device then transferred a tripeptide substrate terminating in acetyl-lysine and amide conjugated to 4-methyl-7-aminocoumarin (AMC), recombinant human histone deacetylase (BPS Bioscience, San Diego, Calif.), and recombinant human trypsin (Sigma-Aldrich, St. Louis, Mo.). Following deacetylase hydrolysis of acetyl-lysine, trypsin cleavage liberated the AMC fluorophore. Kinetic (fluorescence per unit time) and end-point (total fluorescence) data were captured by a multilabel plate reader. Replicate data were analyzed by curve-fit using logistic regression (Spotfire Decision-Site).
Test [2] deals with T2, HDAC2 (Homo sapiens, UniProt Q92769). The test can be described thus: HDAC biochemical assay (Example 16). The following applies: Table 4; reducing conditions (TCEP 200 μM). Further details: recombinant, full-length HDAC protein; purchased BPS Biosciences.
T2 sequence (Q92769 whole entry): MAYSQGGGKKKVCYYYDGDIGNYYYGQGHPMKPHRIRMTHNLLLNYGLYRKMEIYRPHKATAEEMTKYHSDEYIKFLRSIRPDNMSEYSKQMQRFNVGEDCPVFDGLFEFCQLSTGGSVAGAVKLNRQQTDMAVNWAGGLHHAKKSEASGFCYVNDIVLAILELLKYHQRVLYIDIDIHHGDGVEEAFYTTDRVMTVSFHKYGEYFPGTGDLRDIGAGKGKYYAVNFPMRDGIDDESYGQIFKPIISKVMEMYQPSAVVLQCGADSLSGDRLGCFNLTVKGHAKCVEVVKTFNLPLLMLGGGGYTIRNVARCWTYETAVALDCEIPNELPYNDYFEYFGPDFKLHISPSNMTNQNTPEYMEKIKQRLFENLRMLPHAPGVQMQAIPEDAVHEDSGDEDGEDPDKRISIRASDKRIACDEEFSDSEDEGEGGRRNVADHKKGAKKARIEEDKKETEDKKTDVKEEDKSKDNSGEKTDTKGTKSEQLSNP
Description: as §1
Another test addresses T3, HDAC3/NCor2 (Homo sapiens, UniProt O15379).
T3 construct: recombinant, full-length HDAC protein; purchased BPS Biosciences
Briefly: HDAC biochemical assay (Example 16).

In test [3] the target is T4, HDAC6 (Homo sapiens, UniProt Q9UBN7).
T4 sequence (Q9UBN7 1-1215): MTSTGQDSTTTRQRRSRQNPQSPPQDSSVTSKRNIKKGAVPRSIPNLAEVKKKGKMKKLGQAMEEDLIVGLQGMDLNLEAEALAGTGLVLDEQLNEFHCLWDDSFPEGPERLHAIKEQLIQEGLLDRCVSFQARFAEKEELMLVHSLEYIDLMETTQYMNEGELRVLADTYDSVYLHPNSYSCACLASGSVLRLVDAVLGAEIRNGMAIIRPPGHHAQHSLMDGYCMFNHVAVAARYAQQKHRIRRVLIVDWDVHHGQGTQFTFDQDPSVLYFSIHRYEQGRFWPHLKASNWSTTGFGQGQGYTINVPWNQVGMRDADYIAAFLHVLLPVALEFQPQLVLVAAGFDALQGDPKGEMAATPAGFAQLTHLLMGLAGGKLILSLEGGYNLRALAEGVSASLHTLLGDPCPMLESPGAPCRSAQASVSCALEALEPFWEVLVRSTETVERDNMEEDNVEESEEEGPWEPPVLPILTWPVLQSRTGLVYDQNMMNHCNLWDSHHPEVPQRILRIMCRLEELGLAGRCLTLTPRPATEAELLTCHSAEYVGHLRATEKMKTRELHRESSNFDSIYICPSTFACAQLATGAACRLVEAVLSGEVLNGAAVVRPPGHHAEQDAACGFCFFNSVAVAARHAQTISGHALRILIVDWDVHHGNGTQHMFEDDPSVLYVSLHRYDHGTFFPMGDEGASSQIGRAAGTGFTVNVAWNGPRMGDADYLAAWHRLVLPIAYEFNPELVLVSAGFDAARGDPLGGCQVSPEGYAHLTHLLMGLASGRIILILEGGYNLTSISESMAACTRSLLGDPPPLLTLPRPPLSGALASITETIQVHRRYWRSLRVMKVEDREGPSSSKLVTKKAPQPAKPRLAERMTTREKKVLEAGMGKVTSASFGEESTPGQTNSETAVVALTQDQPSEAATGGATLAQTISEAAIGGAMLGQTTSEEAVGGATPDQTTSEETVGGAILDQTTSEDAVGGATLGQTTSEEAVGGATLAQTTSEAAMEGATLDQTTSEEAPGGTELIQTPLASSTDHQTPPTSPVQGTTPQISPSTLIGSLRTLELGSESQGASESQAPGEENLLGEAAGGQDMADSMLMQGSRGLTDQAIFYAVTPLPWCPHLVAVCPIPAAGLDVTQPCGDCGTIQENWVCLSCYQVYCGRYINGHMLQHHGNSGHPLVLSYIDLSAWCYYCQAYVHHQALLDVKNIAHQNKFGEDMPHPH
The test can be described thus: HDAC biochemical assay (Example 16). The following applies: Table 4; reducing conditions (TCEP 200 μM). Further details: recombinant, full-length HDAC protein; purchased BPS Biosciences.
Description: as §1

Test [4] addresses T2, HDAC2. The test can be described thus: HDAC2 inhibition, trypsin-coupled kinetic fluorescence homogeneous assay (Example 10). In kind it is biochemical. Further details: The recombinant, full-length HDAC protein (BPS Biosciences) was incubated; purchased BPS Biosciences. As to conditions: Conc (uM); logistic curve fit of activity versus concentration; some fits reached max iterations; read-out: X50.
Description: (§2) To measure the inhibitory effect on deacetylase function in vitro, a continuous kinetic biochemical assay miniaturized to 384-well plate format was optimized.
(§3) Fluorescence measurements were obtained in real-time on a Varioskan microtiter plate reader (Thermo).
A biochemical study of HDAC2 inhibition was carried out using the trypsin-coupled, kinetic fluorescence homogeneous assay described above.

For a further test, the target named is HDAC7 (Homo sapiens, UniProt Q8WUI4). As to conditions: read-out: HDAC7 IC50; Table O1.
HDAC7, sequence (Q8WUI4 518-952 limits assumed): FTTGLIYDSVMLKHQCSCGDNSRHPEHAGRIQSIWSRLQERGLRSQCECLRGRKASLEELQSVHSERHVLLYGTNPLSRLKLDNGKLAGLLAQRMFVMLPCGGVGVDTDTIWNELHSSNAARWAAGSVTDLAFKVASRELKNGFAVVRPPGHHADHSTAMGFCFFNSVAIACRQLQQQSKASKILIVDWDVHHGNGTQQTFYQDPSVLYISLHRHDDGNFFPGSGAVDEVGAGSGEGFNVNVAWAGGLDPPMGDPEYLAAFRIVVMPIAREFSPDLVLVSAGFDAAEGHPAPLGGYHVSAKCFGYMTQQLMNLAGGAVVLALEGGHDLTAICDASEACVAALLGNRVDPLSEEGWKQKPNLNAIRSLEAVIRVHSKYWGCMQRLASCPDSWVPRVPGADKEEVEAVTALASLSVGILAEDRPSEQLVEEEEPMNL
For test [5], the target named is T2, HDAC2. Briefly: HDAC biochemical assay of O10-O12 (Table O1). Set-up: The recombinant, full-length HDAC protein (BPS Biosciences) was incubated; purchased BPS Biosciences.
The next test deals with T5, HDAC3 (Homo sapiens, UniProt O15379).
T5 construct: The recombinant, full-length HDAC protein (BPS Biosciences) was incubated; purchased BPS Biosciences
T5 sequence (O15379 whole entry): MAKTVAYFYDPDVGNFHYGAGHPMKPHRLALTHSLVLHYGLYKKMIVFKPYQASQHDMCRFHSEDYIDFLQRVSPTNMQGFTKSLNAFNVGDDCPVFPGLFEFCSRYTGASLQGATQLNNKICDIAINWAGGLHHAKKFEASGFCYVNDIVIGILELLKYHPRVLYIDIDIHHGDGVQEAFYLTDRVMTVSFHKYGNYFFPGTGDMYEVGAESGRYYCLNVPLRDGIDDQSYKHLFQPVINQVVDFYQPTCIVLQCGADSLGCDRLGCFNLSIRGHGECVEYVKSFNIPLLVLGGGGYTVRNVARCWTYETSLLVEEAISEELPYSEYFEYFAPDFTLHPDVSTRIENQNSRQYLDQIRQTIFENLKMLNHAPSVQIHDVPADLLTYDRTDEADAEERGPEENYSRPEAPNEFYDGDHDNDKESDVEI
T5 sequence (Q9Y618 395-489 partner limits assumed): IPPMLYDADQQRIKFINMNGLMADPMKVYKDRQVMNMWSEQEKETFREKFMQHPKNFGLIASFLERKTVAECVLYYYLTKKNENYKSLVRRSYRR
Briefly: HDAC biochemical assay of O10-O12 (Table O1).

The target of test [6] is T6, HDAC8 (Homo sapiens, UniProt Q9BY41).
T6 sequence (Q9BY41 1-377): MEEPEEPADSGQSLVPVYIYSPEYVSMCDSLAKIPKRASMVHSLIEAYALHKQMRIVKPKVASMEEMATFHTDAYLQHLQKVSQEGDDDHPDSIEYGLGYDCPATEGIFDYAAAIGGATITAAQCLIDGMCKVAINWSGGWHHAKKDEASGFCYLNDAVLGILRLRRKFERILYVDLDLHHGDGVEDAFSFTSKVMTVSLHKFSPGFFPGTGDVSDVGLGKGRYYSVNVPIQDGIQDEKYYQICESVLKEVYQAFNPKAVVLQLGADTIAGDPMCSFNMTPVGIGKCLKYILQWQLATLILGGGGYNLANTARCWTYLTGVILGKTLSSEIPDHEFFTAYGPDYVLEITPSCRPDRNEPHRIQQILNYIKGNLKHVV
As to conditions: read-out: HDAC8 IC50; Table O1.

For test [7], the target named is T1, HDAC1. As to conditions: read-out: HDAC1 IC50; Table O1.
For test [8], the target named is T4, HDAC6. The following applies: read-out: HDAC6 IC50; Table O1; 200 μM TCEP.
The test system of test [9] is NCI-60 cancer cell lines. The test can be described thus: cells.
Excerpt: (§4) All compounds submitted for screening were initially tested at a single high dose (10^-5 M) against the fill NCI 60 cell panel. Only compounds which satisfied pre-determined threshold inhibition criteria in a minimum number of cell lines progressed to a second round of testing utilizing a more comprehensive 5-dose inhibition assay. The threshold inhibition criteria for progression to the 5-dose assays were selected to efficiently capture compounds with anti-proliferative activity based on historical DTP screening data.
(§5) Concentrations for G150, IC50, TGI, and LC50 were calculated for all cell lines tested, and heat plots were prepared.
Test [10] deals with melanoma cell lines. The following applies: five-dose.
Excerpt: as §4, §5
Test [11] has as its system human malignant melanoma cell lines. Briefly: melanoma cell viability, ATP content (Cell TiterGlo). In kind it is cell-based. The following applies: range over panel of melanoma cell lines, FIG. 4, read-out: IC50 melanoma cell proliferation.
Another test has as its system renal cancer cell lines. As to conditions: five-dose.
Test [12] has as its target T2, HDAC2. The test can be described thus: HDAC biochemical assay of P5-P12 (Table P1). Further details: The recombinant, full-length HDAC protein (BPS Biosciences) was incubated; purchased BPS Biosciences.
In test [13] the target is T6, HDAC8. The test can be described thus: HDAC biochemical assay of P5-P12 (Table P1). Set-up: The recombinant, full-length HDAC protein (BPS Biosciences) was incubated; purchased BPS Biosciences.
Test [14] has as its target T1, HDAC1. Briefly: HDAC biochemical assay of P5-P12 (Table P1). Further details: The recombinant, full-length HDAC protein (BPS Biosciences) was incubated; purchased BPS Biosciences.
In test [15] the target is T1, HDAC1. As to conditions: read-out: HDAC inhibitory activity (Ki) HDAC1; Table 2.
Excerpt: as §2, §3
A further test has as its system HDACs 1-3. Briefly: HDAC biochemical assay of P5-P12, summary statements.
Test [16] concerns the target T2, HDAC2. In kind it is biochemical. Further details: The recombinant, full-length HDAC protein (BPS Biosciences) was incubated; purchased BPS Biosciences. The following applies: read-out: HDAC inhibitory activity (Ki) HDAC2.
Excerpt: as §2, §3
In test [17] the test system is NCI-60 cancer cell lines. The following applies: five-dose.
Excerpt: as §4, §5
Test [18] has as its system melanoma cell lines. Briefly: cells. The following applies: read-out: Average Concentration (M), LC50, Melanoma.
Excerpt: as §4, §5
The subject of the next test is human HDACs. The test can be described thus: HDAC biochemical assay (Example 16), summary statements over isoforms. The protocol: The inhibitory effect of compounds on deacetylase isoenzyme function was determined in vitro using an optimized homogenous assay performed in 384-well plate format. […] Data are analyzed on a plate-by-plate basis for the linear range of fluorescence over time. Data from the plate capture corresponding to the mid-linear range is imported into analytical software and annotated with well identity and compound concentration (Spotfire DecisionSite). Replicate experimental data from incubations with inhibitor are normalized to control, solvent-only wells and IC-50 is determined by logistic regression.
Thus, small-molecule inhibitors were arrayed at twelve-point dose-response (3-fold increments) in 384-well library plates and transferred by robotic pin device to replicate assay plates containing assay buffer under reducing conditions (TCEP 200 μM). A liquid handling device then transferred a tripeptide substrate terminating in acetyl-lysine and amide conjugated to 4-methyl-7-aminocoumarin (AMC), recombinant human histone deacetylase (BPS Bioscience, San Diego, Calif.), and recombinant human trypsin (Sigma-Aldrich, St. Louis, Mo.). […] Kinetic (fluorescence per unit time) and end-point (total fluorescence) data were captured by a multilabel plate reader. Replicate data were analyzed by curve-fit using logistic regression (Spotfire Decision-Site). […]

Read-outs that look alike come from different tables or passages of the source.

T1 sequence (Q13547 whole entry): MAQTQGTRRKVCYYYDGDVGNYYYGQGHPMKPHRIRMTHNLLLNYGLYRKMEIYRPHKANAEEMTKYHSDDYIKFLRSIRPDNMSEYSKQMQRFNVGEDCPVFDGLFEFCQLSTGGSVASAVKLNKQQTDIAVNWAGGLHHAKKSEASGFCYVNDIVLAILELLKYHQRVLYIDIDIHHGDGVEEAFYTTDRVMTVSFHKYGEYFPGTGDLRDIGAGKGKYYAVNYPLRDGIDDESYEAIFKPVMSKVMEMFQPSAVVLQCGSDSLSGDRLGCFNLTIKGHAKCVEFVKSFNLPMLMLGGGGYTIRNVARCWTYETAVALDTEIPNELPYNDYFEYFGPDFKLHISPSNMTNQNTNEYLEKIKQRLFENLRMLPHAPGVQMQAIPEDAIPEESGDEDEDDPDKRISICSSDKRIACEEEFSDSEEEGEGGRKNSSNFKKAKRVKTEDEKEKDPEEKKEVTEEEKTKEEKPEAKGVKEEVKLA
T3 sequence (O15379 whole entry): as the sequence (O15379 whole entry) above
T3 sequence (Q9Y618 395-489 partner limits assumed): as the sequence (Q9Y618 395-489 partner limits assumed) above
Description for HDAC3/NCor2: as §1
Excerpt for renal cancer cell lines: as §4, §5

`CC(C)C1NC(=O)C2(C)COC(=N2)c2coc(n2)CNC(=O)CC(C=CCCSSCCC=CC2CC(=O)NCc3nc(co3)C3=NC(C)(CO3)C(=O)NC(C(C)C)C(=O)O2)OC1=O` (stereo not drawn) [Oxazoline-oxazole (39b), Disulfide Dimer 39b]: the IC50 on HDAC1 [1] turned out to be 0.69 nM; at HDAC2 [2], 1.7 nM; against HDAC3/NCor2, 1.5 nM.
Take `C[C@@]12CSC(=N1)c1csc(n1)CNC(=O)C[C@@H](/C=C/CCS)OC(=O)[C@@H]1CCCN1C2=O` [Proline substitution (4)]: the IC50 at HDAC1 [1] worked out at 110 nM; on HDAC2 [2], 800 nM; at HDAC6 [3], 13 µM; against HDAC3/NCor2 (Table 4, reducing conditions (TCEP 200 μM)), 580 nM; on HDAC2 [4], 0.773 µM.
On to `CC(C)[C@@H]1NC(=O)[C@]2(C)CSC(=N2)c2coc(n2)CNC(=O)C[C@@H](/C=C/CCS)OC1=O` [Compound O11, Thiazoline-Oxazole Thiol Analog], for which the IC50 amounted to 960 nM on HDAC7; 20 nM at HDAC2 [5]; 7.2 nM at HDAC3; 1200 nM on HDAC8 [6]; 4.4 nM at HDAC1 [7]; 98 nM on HDAC6 [8].
On to `CCCCCCCC(=O)SCCC=CC1CC(=O)NCc2nc(co2)C2=NC(C)(CS2)C(=O)NC(C(C)C)C(=O)O1` (stereo not drawn) [Compound O12, Thiazoline-Oxazole Thioester Analog], for which the IC50 came to 2100 nM on HDAC2 [5], 1900 nM against HDAC3, 950 nM on HDAC1 [7] and 1100 nM at HDAC6 [8].
As to `CCCCCCCC(=O)SCC/C=C/[C@@H]1CC(=O)NCc2nc(cs2)C2=N[C@@](C)(CS2)C(=O)N[C@@H](C(C)C)C(=O)O1` [Largazole, largazole, reference compound], the GI50 in the test on NCI-60 cancer cell lines [9] (read-out: Average Concentration (M), GI50) is 2.1e-06 M; in the test with NCI-60 cancer cell lines [9] (read-out: GI50 concentrations (M), order of magnitude), 1e-06 M. Moreover, the IC50 at HDAC2 [5] is 900 nM; in [11], 45 to 315 nM; at HDAC2 [12], 18.6 nM; at HDAC1 [7], 230 nM; on HDAC8 [13], 1070 nM; at HDAC1 [14] it was 10.1 nM. Moreover, in the test on melanoma cell lines [10], the “Percent of Cell Lines Impacted (%), LC50, Melanoma” value is reported as 33%. The “Percent of Cell Lines Impacted (%), LC50, Renal” value with renal cancer cell lines was 14%. For the same compound, the inhibition constant Ki on HDAC1 [15] is 20 nM; on HDAC2 [16], 21 nM. Further, in the test with HDACs 1-3, the “IC50 range in words for HDACs 1-3” value was “high nM-μM range”. For the same compound, in the test on NCI-60 cancer cell lines [17] (50% Growth Inhibition), the “Percent of Cell Lines Impacted (%), GI50” value came out at 100%. Also, the “Percent of Cell Lines Impacted (%), LC50” value in the test with NCI-60 cancer cell lines [17] (50% Lethal Concentration reached) is 7%. The “Percent of Cell Lines Impacted (%), TGI” value with NCI-60 cancer cell lines [17] (Total Growth Inhibition) came out at 58%. For the same compound, the “Total Impacted Cell Lines (n), TGI” value with NCI-60 cancer cell lines [17] (Total Growth Inhibition) stood at 34. In the test on melanoma cell lines [18], the CC50 came out at 3.55e-06 M.
In the case of `CC(C)[C@@H]1NC(=O)[C@]2(C)CSC(=N2)c2cccc(n2)CNC(=O)C[C@@H](/C=C/CCS)OC1=O` [Thiazole-pyridine substitution (29b)], the IC50 is 0.029 µM on HDAC6 [3] and 1.1 nM at HDAC3/NCor2. The “activity against Class I HDACs” value in the test on human HDACs is on record as “sub-nanomolar”.

The Ki is the dissociation constant of the complex between target and ligand, obtained from inhibition or displacement.
